Reference: ChEMBL document CHEMBL1125402, “Conformational effects on the activity of drugs. 13. A revision of previously proposed models for the activation of alpha- and beta-adrenergic receptors” (J Med Chem, 1992)

Key:
[1] = target: T1, Beta-1 adrenergic receptor (Rattus norvegicus, UniProt P18090)
Description: Compound was evaluated for beta adrenergic binding affinity towards Beta-1 adrenergic receptor of rat brain

[2] = target: T2, Adrenergic receptor alpha-1 (Rattus norvegicus, UniProt P15823+P23944+P43140); assay: Binding affinity towards Alpha-1 adrenergic receptor of rat brain
T2 sequence (P15823 whole entry): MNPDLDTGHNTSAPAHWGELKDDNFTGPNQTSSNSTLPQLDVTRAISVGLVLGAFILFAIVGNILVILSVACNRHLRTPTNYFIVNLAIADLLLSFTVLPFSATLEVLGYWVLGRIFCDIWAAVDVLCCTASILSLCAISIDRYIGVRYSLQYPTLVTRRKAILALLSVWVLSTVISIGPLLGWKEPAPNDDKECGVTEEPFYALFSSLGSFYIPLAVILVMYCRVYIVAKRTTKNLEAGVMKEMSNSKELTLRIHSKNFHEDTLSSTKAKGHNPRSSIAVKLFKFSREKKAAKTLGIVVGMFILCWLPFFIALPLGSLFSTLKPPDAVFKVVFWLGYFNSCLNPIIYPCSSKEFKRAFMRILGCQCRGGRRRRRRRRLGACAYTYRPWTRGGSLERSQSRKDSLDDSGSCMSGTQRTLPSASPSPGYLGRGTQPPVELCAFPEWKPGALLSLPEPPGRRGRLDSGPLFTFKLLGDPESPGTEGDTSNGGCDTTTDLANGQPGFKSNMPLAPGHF
T2 sequence (P23944 whole entry): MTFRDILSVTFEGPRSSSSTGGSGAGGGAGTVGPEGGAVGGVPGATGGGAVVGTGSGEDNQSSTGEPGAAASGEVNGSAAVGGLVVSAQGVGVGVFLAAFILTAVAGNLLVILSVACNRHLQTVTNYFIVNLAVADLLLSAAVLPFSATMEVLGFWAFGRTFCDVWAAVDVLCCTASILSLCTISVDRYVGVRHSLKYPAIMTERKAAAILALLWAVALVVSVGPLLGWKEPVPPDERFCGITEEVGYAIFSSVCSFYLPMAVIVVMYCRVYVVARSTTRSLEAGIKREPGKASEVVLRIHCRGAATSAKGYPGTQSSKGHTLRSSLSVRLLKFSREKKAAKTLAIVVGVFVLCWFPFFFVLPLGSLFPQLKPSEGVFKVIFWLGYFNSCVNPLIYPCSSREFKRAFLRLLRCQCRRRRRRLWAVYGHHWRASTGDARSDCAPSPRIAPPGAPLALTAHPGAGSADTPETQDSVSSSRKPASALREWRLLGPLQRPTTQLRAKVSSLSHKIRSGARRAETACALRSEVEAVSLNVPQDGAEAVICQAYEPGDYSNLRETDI
T2 sequence (P43140 whole entry): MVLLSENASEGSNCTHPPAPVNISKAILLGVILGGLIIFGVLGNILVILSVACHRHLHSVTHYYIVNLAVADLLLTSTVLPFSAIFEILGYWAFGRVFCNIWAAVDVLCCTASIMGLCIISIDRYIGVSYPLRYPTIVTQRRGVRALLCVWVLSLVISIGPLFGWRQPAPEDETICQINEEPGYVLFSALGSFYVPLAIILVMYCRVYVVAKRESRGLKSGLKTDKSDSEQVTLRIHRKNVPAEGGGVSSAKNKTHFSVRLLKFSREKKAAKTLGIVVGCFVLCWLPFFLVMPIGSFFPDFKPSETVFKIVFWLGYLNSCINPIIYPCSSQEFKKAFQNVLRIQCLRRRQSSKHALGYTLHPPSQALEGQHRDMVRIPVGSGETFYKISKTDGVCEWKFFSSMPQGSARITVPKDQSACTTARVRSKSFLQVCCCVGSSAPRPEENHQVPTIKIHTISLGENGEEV

[3] = target: T3, Adrenergic receptor alpha-2 (Homo sapiens) (UniProt P08913+P18825+P18089); assay: Compound was evaluated for alpha adrenoceptor agonistic activity towards alpha-2 adrenergic receptor of isolated guinea pig ileum; format: functional, tissue-based; conditions: Cavia porcellus, target entry is the homologue from another species
[4] = target: Beta-1 adrenergic receptor (Cavia porcellus) (UniProt B0FL73); assay: Compound was evaluated for beta adrenoceptor agonistic activity towards Beta-1 adrenergic receptor of isolated guinea pig atria; format: functional
Sequence of Beta-1 adrenergic receptor (Cavia porcellus) (B0FL73 1-467): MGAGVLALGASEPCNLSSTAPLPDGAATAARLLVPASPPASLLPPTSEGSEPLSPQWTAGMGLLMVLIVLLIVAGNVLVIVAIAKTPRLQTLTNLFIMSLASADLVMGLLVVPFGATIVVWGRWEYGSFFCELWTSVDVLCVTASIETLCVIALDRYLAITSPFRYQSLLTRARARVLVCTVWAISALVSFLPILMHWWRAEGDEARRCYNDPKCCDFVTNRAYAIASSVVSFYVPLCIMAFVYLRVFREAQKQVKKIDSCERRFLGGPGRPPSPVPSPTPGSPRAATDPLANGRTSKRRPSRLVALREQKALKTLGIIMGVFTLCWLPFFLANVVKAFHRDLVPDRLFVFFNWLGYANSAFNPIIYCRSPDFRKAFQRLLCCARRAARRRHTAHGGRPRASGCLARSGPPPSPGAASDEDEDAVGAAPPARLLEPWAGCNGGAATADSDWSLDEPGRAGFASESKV

[5] = target: T3, Adrenergic receptor alpha-2 (Homo sapiens); assay: Intrinsic activity was expressed as the ratio between maximal response elicited by compound and that elicited by full agonist NE towards alpha-2 adrenergic receptor of isolated guinea pig ileum; format: functional, tissue-based; conditions: Cavia porcellus
[6] = target: T4, Beta-2 adrenergic receptor (Bos taurus, UniProt Q28044); assay: Compound was evaluated for beta adrenergic binding affinity towards Beta-2 adrenergic receptor of bovine lung
T4 sequence (Q28044 whole entry): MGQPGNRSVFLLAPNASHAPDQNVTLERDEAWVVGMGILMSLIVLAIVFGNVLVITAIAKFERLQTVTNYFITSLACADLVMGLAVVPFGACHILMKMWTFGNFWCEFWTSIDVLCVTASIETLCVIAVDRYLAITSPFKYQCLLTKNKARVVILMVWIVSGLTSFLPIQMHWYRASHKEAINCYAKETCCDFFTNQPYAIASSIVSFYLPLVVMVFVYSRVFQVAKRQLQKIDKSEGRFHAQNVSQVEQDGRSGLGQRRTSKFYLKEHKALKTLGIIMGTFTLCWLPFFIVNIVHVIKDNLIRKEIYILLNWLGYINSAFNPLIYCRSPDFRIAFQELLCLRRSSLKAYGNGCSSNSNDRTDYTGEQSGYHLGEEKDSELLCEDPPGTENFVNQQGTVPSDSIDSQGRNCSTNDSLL

[7] = target: T5, Adrenergic receptor alpha-2 (Rattus norvegicus, UniProt P22086+P19328+P22909); assay: Binding affinity towards Alpha-2 adrenergic receptor of rat brain
T5 sequence (P22086 whole entry): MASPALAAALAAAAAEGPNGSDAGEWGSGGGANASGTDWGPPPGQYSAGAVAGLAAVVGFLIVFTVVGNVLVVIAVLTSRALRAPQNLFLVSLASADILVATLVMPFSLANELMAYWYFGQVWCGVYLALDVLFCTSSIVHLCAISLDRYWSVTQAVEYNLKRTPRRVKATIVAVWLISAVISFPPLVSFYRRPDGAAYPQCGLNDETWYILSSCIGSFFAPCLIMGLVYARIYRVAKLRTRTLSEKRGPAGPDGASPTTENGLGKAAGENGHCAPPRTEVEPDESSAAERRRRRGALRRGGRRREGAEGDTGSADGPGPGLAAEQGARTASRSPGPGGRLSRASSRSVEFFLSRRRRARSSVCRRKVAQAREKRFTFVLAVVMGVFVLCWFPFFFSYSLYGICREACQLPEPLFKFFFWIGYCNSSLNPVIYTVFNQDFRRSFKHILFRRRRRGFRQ
T5 sequence (P19328 whole entry): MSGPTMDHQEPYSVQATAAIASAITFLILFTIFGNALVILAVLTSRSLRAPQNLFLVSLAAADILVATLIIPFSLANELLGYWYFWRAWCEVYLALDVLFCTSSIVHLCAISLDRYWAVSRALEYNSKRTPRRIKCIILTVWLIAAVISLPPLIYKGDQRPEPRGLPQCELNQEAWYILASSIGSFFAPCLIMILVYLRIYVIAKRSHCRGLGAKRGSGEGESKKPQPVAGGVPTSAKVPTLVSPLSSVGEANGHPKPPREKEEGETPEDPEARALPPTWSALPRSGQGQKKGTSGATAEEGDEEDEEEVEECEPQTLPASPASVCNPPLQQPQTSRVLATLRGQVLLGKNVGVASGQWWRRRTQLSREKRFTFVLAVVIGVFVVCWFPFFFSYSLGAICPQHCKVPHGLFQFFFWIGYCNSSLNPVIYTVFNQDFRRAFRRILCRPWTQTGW
T5 sequence (P22909 whole entry): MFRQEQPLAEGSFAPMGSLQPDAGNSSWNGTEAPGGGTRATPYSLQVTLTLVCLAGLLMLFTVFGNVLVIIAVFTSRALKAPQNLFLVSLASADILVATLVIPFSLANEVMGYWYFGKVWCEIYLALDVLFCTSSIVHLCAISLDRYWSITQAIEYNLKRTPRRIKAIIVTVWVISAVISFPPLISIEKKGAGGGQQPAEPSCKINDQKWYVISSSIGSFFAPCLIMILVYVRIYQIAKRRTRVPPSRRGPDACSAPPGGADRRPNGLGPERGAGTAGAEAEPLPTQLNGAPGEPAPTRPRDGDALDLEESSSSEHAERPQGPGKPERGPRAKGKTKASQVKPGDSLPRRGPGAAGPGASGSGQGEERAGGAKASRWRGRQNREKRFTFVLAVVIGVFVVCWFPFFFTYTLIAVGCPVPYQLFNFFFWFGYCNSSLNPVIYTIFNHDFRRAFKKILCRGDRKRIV

[8] = target: Beta-1 adrenergic receptor (Cavia porcellus) (UniProt B0FL73); assay: Intrinsic activity was expressed as the ratio between maximal response elicited by compound and that elicited by full agonist ISO towards beta 1 receptor of isolated guinea pig atria; format: functional
[9] = target: Beta-2 adrenergic receptor (Cavia porcellus) (UniProt Q8K4Z4); assay: Compound was evaluated for beta adrenoceptor agonistic activity towards Beta-2 adrenergic receptor of isolated guinea pig tracheal strip; format: functional
Sequence of Beta-2 adrenergic receptor (Cavia porcellus) (Q8K4Z4 whole entry, looked up): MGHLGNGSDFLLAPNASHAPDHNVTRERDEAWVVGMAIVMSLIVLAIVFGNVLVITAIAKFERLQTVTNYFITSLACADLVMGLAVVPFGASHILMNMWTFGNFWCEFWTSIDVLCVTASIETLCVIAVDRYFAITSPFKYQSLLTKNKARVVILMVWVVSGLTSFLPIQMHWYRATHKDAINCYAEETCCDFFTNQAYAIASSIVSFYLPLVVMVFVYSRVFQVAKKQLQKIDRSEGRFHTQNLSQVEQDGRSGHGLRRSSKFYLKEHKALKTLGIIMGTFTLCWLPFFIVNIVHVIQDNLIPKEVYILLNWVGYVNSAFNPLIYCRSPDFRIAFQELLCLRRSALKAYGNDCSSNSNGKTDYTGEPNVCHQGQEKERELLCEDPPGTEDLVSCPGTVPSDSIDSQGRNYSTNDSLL

[10] = target: T3, Adrenergic receptor alpha-2 (Homo sapiens); conditions: Cavia porcellus; Ileum
Description: Intrinsic activity was expressed as the ratio between maximal response elicited by compound and that elicited by full agonist NE towards Alpha-2 adrenergic receptor of isolated guinea pig ileum

[11] = target: T6, Adrenergic receptor alpha-1 (Rattus norvegicus) (UniProt P15823+P23944+P43140); assay: Compound was evaluated for alpha adrenoceptor agonistic activity towards alpha 1 receptor of isolated rat vas deferens; format: functional, tissue-based
[12] = target: Beta-2 adrenergic receptor (Cavia porcellus) (UniProt Q8K4Z4); assay: Compound was evaluated for beta adrenoceptor agonistic activity towards Beta-2 adrenergic receptor of isolated guinea pig tracheal strip (exp 1 2); format: functional
[13] = target: T5, Adrenergic receptor alpha-2; assay: Compound was evaluated for alpha adrenergic binding affinity towards Alpha-2 adrenergic receptor of rat brain
[14] = target: T4, Beta-2 adrenergic receptor; assay: Compound was evaluated for beta adrenergic binding affinity towards beta-2 receptor of bovine lung
[15] = target: Beta-1 adrenergic receptor (Cavia porcellus) (UniProt B0FL73); assay: Compound was evaluated for beta adrenoceptor agonistic activity towards Beta-1 adrenergic receptor of isolated guinea pig atria (exp 1); format: functional
[16] = target: Beta-2 adrenergic receptor (Cavia porcellus) (UniProt Q8K4Z4); assay: Compound was evaluated for beta adrenoceptor agonistic activity towards beta 2 receptor of isolated guinea pig tracheal strip (exp 1 2); format: functional
[17] = target: Beta-1 adrenergic receptor (Cavia porcellus) (UniProt B0FL73); assay: Compound was evaluated for beta adrenoceptor agonistic activity towards Beta-1 adrenergic receptor of isolated guinea pig atria (exp 2); format: functional
[18] = target: Beta-1 adrenergic receptor (Cavia porcellus) (UniProt B0FL73); assay: Compound was evaluated for beta adrenoceptor agonistic activity towards beta 1 receptor of isolated guinea pig atria (exp 1); format: functional
[19] = target: Adrenergic receptor alpha-1 (Homo sapiens) (UniProt P35348+P25100+P35368); assay: (§1) Compound was evaluated for alpha adrenoceptor agonistic activity towards Alpha-1 adrenergic receptor of isolated rat vas deferens; format: functional, tissue-based; conditions: Oryctolagus cuniculus
[20] = target: T6, Adrenergic receptor alpha-1 (Rattus norvegicus); assay: Compound was evaluated for alpha adrenoceptor agonistic activity towards Alpha-1 adrenergic receptor of isolated rabbit aortic strips (exp 2); format: functional
[21] = target: Beta-2 adrenergic receptor (Cavia porcellus) (UniProt Q8K4Z4)
[22] = target: Beta-1 adrenergic receptor (Cavia porcellus) (UniProt B0FL73)
[23] = target: T6, Adrenergic receptor alpha-1 (Rattus norvegicus); assay: as §1; format: functional, tissue-based
[24] = target: T6, Adrenergic receptor alpha-1 (Rattus norvegicus); conditions: Vas deferens
[25] = target: Beta-1 adrenergic receptor (Cavia porcellus) (UniProt B0FL73); assay: Intrinsic activity was expressed as the ratio between maximal response elicited by compound and that elicited by full agonist ISO towards Beta-1 adrenergic receptor of isolated guinea pig atria (exp 1); format: functional
[26] = target: Beta-1 adrenergic receptor (Cavia porcellus) (UniProt B0FL73); assay: Compound was evaluated for beta adrenergic […]
[27] = target: Beta-1 adrenergic receptor (Cavia porcellus) (UniProt B0FL73); assay: Compound was evaluated for beta adrenoceptor agonistic activity towards beta 1 receptor of isolated guinea pig atria (exp 2); format: functional
[28] = target: Beta-2 adrenergic receptor (Cavia porcellus) (UniProt Q8K4Z4); assay: Intrinsic activity was expressed as the ratio between maximal response elicited by compound and that elicited by full agonist ISO towards Beta-2 adrenergic receptor of isolated guinea pig tracheal strip (exp 1); format: functional
[29] = target: Beta-2 adrenergic receptor (Cavia porcellus) (UniProt Q8K4Z4); assay: Intrinsic activity was expressed as the ratio between maximal response elicited by compound and that elicited by full agonist ISO towards beta 2 receptor of isolated guinea pig tracheal strip (exp 2); format: functional
[30] = target: Beta-2 adrenergic receptor (Cavia porcellus) (UniProt Q8K4Z4); assay: Intrinsic activity was expressed as the ratio between maximal response elicited by compound and that elicited by full agonist ISO towards beta 2 receptor of isolated guinea pig tracheal strip (exp 1); format: functional
[31] = target: T1, Beta-1 adrenergic receptor; assay: Compound was evaluated for beta adrenergic binding affinity towards beta-1 receptor of rat brain
[32] = target: Beta-2 adrenergic receptor (Cavia porcellus) (UniProt Q8K4Z4); remark: listed apart in the source
Description: Compound was evaluated for beta adrenoceptor agonistic activity towards Beta-2 adrenergic receptor of isolated guinea pig tracheal strip (exp 2)

[33] = target: T6, Adrenergic receptor alpha-1 (Rattus norvegicus); assay: Compound was evaluated for alpha adrenoceptor agonistic activity towards alpha 1 receptor of isolated rat vas deferens (exp 1); format: functional, tissue-based
[34] = target: T6, Adrenergic receptor alpha-1 (Rattus norvegicus); assay: Compound was evaluated for alpha adrenoceptor agonistic activity towards Alpha-1 adrenergic receptor of isolated rat vas deferens (exp 2); format: functional, tissue-based

T1 sequence (P18090 whole entry): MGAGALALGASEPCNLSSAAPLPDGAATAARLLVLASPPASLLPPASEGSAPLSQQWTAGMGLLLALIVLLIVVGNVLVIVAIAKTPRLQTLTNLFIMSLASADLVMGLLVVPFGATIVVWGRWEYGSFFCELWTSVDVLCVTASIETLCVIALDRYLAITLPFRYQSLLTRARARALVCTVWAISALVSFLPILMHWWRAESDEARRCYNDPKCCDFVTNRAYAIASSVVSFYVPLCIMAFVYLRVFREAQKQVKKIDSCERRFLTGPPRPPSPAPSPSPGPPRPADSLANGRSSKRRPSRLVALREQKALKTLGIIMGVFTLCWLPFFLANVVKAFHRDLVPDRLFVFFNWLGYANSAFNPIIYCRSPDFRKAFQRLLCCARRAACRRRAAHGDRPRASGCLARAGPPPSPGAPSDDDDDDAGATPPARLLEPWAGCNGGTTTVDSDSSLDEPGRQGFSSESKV

## CC(C)N1CCCC(O)(c2ccc(O)c(O)c2)C1 (stereo not given)
[1]
  Ki: 60 µM
[2]
  Ki: 36 µM
[3]
  pD2: 4.57
[4]
  pD2: 3.5
[5]
  Intrinsic activity: 0.89
[6]
  Ki: 92 µM
[7]
  Ki: 4.8 µM
[8]
  Intrinsic activity: 0.16
[9]
  pD2: 4.64

## N[C@@H]1CCc2c(ccc(O)c2O)[C@H]1O
[1]
  Ki: 8 µM
[10]
  pD2: 5.32
[11]
  pD2: 3.7
[2]
  Ki: > 100 µM
[12]
  pD2: 7.78
[13]
  Ki: 2.9 µM
[14]
  Ki: 0.12 µM
[15]
  pD2: 6.74
[16]
  pD2: 7.49
[17]
  Intrinsic activity: 1
[18]
  pD2: 4.96
[19]
  pD2: < 3.5
[20]
  Intrinsic activity: 0.87

## NC[C@H](O)c1ccc(O)c(O)c1 [NOREPINEPHRINE]
[21]
  pD2: 6.03
[10]
  pD2: 6.56
[22]
  pD2: 6.32
[14]
  Ki: 6 µM
[23]
  Intrinsic activity: 1
[24]
  pD2: 5.12

## CC(C)N1CCOC(c2ccc(O)c(O)c2)C1 (stereo not given)
[25]
  Intrinsic activity: 0.88
[10]
  pD2: 5
[2]
  Ki: 6.7 µM
[13]
  Ki: 5.1 µM
[26]
  pD2: 4.62
[27]
  pD2: 5.74
[28]
  pD2: 5.91
[29]
  Intrinsic activity: 0.93
[14]
  Ki: 36 µM
[15]
  Intrinsic activity: 0.77
[30]
  Intrinsic activity: 0.87
[31]
  Ki: 48 µM
[32]
  pD2: 6.34

## Oc1ccc(C2(O)CCCNC2)cc1O (stereo not given)
[1]
  Ki: > 100 µM
[21]
  pD2: 4.44
[10]
  pD2: 5.56
[2]
  Ki: 15 µM
[33]
  pD2: 4.76
[13]
  Ki: 0.5 µM
[22]
  pD2: 3.81
[34]
  Intrinsic activity: 0.95
[14]
  Ki: > 100 µM
